According to patent US20220119376A1, “TRICYCLIC COMPOUNDS ACTING ON CRBN PROTEINS” (CHIA TAI TIANQING PHARMACEUTICAL GROUP CO., LTD., priority 2018, published 2022):
Where a name gives a salt, the structure may show the parent alone. Values belong to the compound of their own block, whether it stands above or below them.

Key:
MM.1S = assay: Antiproliferative effect in multiple myeloma cell line MM.1S (CellTiter-Glo); assay type: cell-based; conditions: Homo sapiens, MM1.S, 120 h, MM.1S cells, 5 days of compound co-incubation
Description: (§1) Periodical passaging was performed, and cells in logarithmic growth phase were taken for plating. • (1) Cells were stained with trypan blue and viable cells were counted. • (2) The cell concentration was adjusted to an appropriate level. [table] • (3) 90 μL of cell suspension was added to each well in the culture plate and cell-free medium was added to the blank control wells according to the table above. • (4) The culture plate was incubated overnight in an incubator at 37° C./5% CO2 and 100% relative humidity. […] It was prepared freshly prior to use. […] After the compound or DMSO was added, the mixture was pipetted and mixed well. […] 10 μL of DMSO-cell culture mixture was added to the vehicle control and blank control wells. […] The following procedure was performed according to the instructions of Promega CellTiter-Glo luminescence cell viability assay kit (Promega-G7573). […] The cell plate was wrapped with aluminum foil to keep out of light. (7) The plate was shaken on an orbital shaker for 2 min to induce cell lysis. (8) The culture plate was placed at room temperature for 10 min to stabilize the luminescence signals. (9) The luminescence signals were detected on 2104 EnVision plate reader. […] Inhibition rates of compounds at different concentrations were calculated in Excel, followed by plotting the inhibition curves and calculating relevant parameters including minimum inhibition rate (%), maximum inhibition rate (%) and IC50 using GraphPad Prism software.

[1] = Pharmacokinetic evaluation of compounds in rats; assay type: in vivo, SD male rats; conditions: for clearance / half-life / bioavailability: male, Sprague Dawley, rat, plasma; for bioavailability: oral, intragastric administration 10 mg/kg vs intravenous 2 mg/kg, read-out: Bioavailability F
Text: (§2) The test animals in the study were SD male rats, and the LC/MS/MS method was used to quantitatively determine the drug concentration in the plasma of the rats at different time points after intravenous injection or oral administration of the test compounds and the reference compound, thus evaluating the pharmacokinetic characteristics of the test drugs in the rats.
Sprague Dawley (SD) rats (male, 200-300 g, 7-10 weeks old, Beijing Vital River or Shanghai SLAC).
(§3) Clear solution of the test compound was injected into SD rats (overnight fasting) via the tail vein or administered intragastrically to SD rats (overnight fasting). For intravenous injection, 200 μL of blood was each collected by jugular vein puncture at 0 h (before injection) and 0.0833 h, 0.25 h, 0.5 h, 1 h, 2 h, 4 h, 6 h, 8 h and 24 h (after injection), and then placed in an anticoagulation tube added with EDTA-K2 (Jiangsu KANGJIAN Medical Apparatus Co., Ltd.), and the mixture was thoroughly vortex-mixed at 4° C. and centrifuged at 13000 rpm for 10 min; for intragastric administration, blood was collected by jugular veinpuncture at 0 h (before administration) and 0.5 h, 1 h, 2 h, 4 h, 6 h, 8 h and 24 h (after administration), and then placed in an anticoagulation tube added with EDTA-K2 (Jiangsu KANGJIAN Medical Apparatus Co., Ltd.), and the mixture was thoroughly vortex-mixed and centrifuged at 13000 rpm for 10 min. The plasma concentration was measured by LC-MS/MS method, and the relevant pharmacokinetic parameters were calculated by WinNonlin™ Version 6.3 (Pharsight, Mountain View, Calif.) pharmacokinetic software using non-compartmental model linear logarithmic trapezoid method.

[2] = Pharmacokinetic evaluation of compounds in mice; conditions: male, C57BL, mouse, in vivo
Text: as §2, with “C57BL” for “SD”, “mice,” for “rats,”, “mice” for “rats”, “mice.” for “rats.”
C57Balb/C (C57) mice (male, 20-30 g, 7-10 weeks old, Beijing Vital River or Shanghai SLAC).
as §3, with “Clear or suspended” for “Clear”, “C57 mice” for “SD rats”, “vein puncture” for “veinpuncture”

[3] = system: human myeloma MM.1S cells; assay: In vivo pharmacodynamic study in subcutaneous xenograft tumor CB-17 SCID model of human myeloma MM.1S cells; set-up: species or system CB-17 SCID mice; conditions: for Tumor volume (Day 0): Day 0 (baseline at grouping), 5 mg/kg oral twice daily; for Tumor volume (Day 24) / TGI (Day 24): Day 24, 5 mg/kg oral twice daily; for TGI (Day 24): tumor growth inhibition vs vehicle control
Description: Cell culturing: human multiple myeloma cells MM.1S (ATCC® CRL-2974™) were cultured in vitro, in a semi-suspension manner, with an ATCC-formulated RPMI-1640 medium containing 10% fetal calf serum, 100 U/mL penicillin and 100 μg/mL streptomycin in an incubator at 37° C./5% CO2. Passages were performed twice a week.
At a required number, the cells were taken, counted and inoculated.
Animals: CB-17 SCID mice, female, 6-8 weeks old, weight of 18-20 g.
0.2 mL (5×10^6 cells) of MM.1S cells (along with matrigel in a volume ratio of 1:1) was subcutaneously inoculated on the right back of each mouse, and the mice were divided into groups for administration after the mean tumor volume was approximately 130 mm^3. Seven days constitute an administration cycle, twice daily with a 12 h interval, and the test compound was orally administered for a total of four cycles. Test compounds WX009 and WX023 were administered at a dose of 5 mg/kg, tumor volume was measured twice weekly with a two-dimensional caliper, and the volume was measured in cubic millimeters and calculated according to the following formula: V=0.5 a×b2 where a and b are the long and short diameters, respectively, of the tumor. Anti-tumor efficacy was determined by dividing the mean tumor increase volume of compound-treated animals by the mean tumor increase volume of untreated animals.

NCI-H929 = assay: Antiproliferative effect in myeloma cell line NCI-H929 (CellTiter-Glo); assay type: cell-based; conditions: Homo sapiens, 120 h, NCI-H929 cells, 5 days of compound co-incubation
Description: as §1

[4] = intragastric administration 10 mg/kg

IC50 (MM.1S): 3.4 nM
SMILES: O=C1CCC(c2noc3ccc4cc(OCCN5CCCC5)ccc4c23)C(=O)N1 (stereo not drawn) [WX027]

Area under plasma concentration-time curve (0-inf) [1, 4]: 19.69 µM·h
Peak concentration [1, 4]: 3.08 µM
Time to peak [1, 4]: 0.75 h
Area under plasma concentration-time curve (0-inf) ([1]; intravenous injection 2 mg/kg): 3.76 µM·h
clearance ([1]; intravenous injection 2 mg/kg): 21.7 mL/min/kg
half-life ([1]; intravenous injection 2 mg/kg): 1.24 h
bioavailability [1]: 73.7%
bioavailability [2]: 100%
Area under plasma concentration-time curve (0-inf) ([2]; iv, 2 mg/kg): 6.87 µM·h
clearance ([2]; iv, 2 mg/kg): 11.8 mL/min/kg
half-life ([2]; iv, 2 mg/kg): 3.37 h
Area under plasma concentration-time curve (0-inf) ([2]; po, 10 mg/kg): 34.40 µM·h
Peak concentration ([2]; po, 10 mg/kg): 17.50 µM
Time to peak ([2]; po, 10 mg/kg): 0.25 h
IC50 (NCI-H929): 10.3 nM
IC50 (MM.1S): 6.4 nM
SMILES: O=C1CCC(c2noc3ccc4cc(OCCN5CCOCC5)ccc4c23)C(=O)N1 (stereo not drawn) [WX023]
Tumor volume (Day 0) [3]: 130 ± 8 mm^3
Tumor volume (Day 24) [3]: 15 ± 4 mm^3
TGI (Day 24) [3]: 105%

IC50 (MM.1S): 3.8 nM
SMILES: CN(C)CCOc1ccc2c(ccc3onc(C4CCC(=O)NC4=O)c32)c1 (stereo not drawn) [WX015]

IC50 (MM.1S): 3.4 nM
SMILES: O=C1CCC(c2noc3ccc4cc(CO)ccc4c23)C(=O)N1 (stereo not drawn) [WX061]

IC50 (MM.1S): 4.5 nM
SMILES: COc1ccc2c(ccc3onc(C4CCC(=O)NC4=O)c32)c1 (stereo not drawn) [WX013]

Further lines, the compound ahead of its results:

SMILES: O=C1CCC(c2noc3ccc4[nH]ccc4c23)C(=O)N1 (stereo not drawn) [WX009]
Area under plasma concentration-time curve (0-inf) [1, 4]: 26.34 µM·h
Peak concentration [1, 4]: 12.75 µM
Time to peak [1, 4]: 0.50 h
Area under plasma concentration-time curve (0-inf) ([1]; intravenous injection 2 mg/kg): 7.92 µM·h
clearance ([1]; intravenous injection 2 mg/kg): 15.9 mL/min/kg
half-life ([1]; intravenous injection 2 mg/kg): 0.9 h
bioavailability [1]: 66.5%
Area under plasma concentration-time curve (0-inf) ([2]; iv, 2 mg/kg): 5.34 µM·h
Area under plasma concentration-time curve (0-inf) ([2]; po, 10 mg/kg): 12.29 µM·h
Peak concentration ([2]; po, 10 mg/kg): 10.52 µM
Time to peak ([2]; po, 10 mg/kg): 0.25 h
half-life ([2]; mice, intravenous injection 2 mg/kg, read-out: Half life (converted)): 0.89 h
clearance ([2]; mice, intravenous injection 2 mg/kg, read-out: Plasma clearance): 23.2 mL/min/kg
bioavailability ([2]; mice, oral administration 10 mg/kg vs intravenous 2 mg/kg, read-out: Bioavailability F): 46.1%
Tumor volume (Day 0) [3]: 131 ± 12 mm^3
Tumor volume (Day 24) [3]: 14 ± 5 mm^3
TGI (Day 24) [3]: 105%

SMILES: O=C1CCC(c2noc3ccc4cc(OCCNC5CCOCC5)ccc4c23)C(=O)N1 (stereo not drawn) [Hydrochloride of WX039]
IC50 (MM.1S): 2.6 nM

SMILES: O=C1CCC(c2noc3cc4occc4cc23)C(=O)N1 (stereo not drawn) [WX005]
IC50 (NCI-H929): 19.1 nM

SMILES: O=C1CCC(c2noc3ccc4ccccc4c23)C(=O)N1 (stereo not drawn) [WX004]
IC50 (NCI-H929): 21.2 nM
IC50 (MM.1S): 6.6 nM

SMILES: O=C1CCC(c2noc3ccc4ccoc4c23)C(=O)N1 (stereo not drawn) [WX006]
IC50 (MM.1S): 2 nM
